From PubChem BioAssay (NCI)
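Grown in 96-well plates, cells were treated for 48 hours with each compound at five concentrations. Insufficient inhibition: endpoint recorded as highest concentration tested. GI50 = concentration required for 50% inhibition of growth. TGI: total growth inhibition.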

Legend:
Test in all cases: growth of human tumour cells (NCI), 48 h
[1] = test system: SK-MEL-2 melanoma
[2] = test system: BT-549 breast
[3] = test system: U251 CNS
[4] = test system: TK-10 renal
[5] = test system: SK-OV-3 ovarian
[6] = test system: IGROV1 ovarian
[7] = test system: NCI-H23 lung
[8] = test system: HOP-92 NSCLC
[9] = test system: SN12C renal
[10] = test system: DU-145 prostate

Structure (SMILES)	GI50 [1]	TGI [1]	GI50 [2]	TGI [2]	GI50 [3]	TGI [3]	GI50 [4]	TGI [4]	GI50 [5]	TGI [5]	GI50 [6]	TGI [6]	GI50 [7]	TGI [7]	GI50 [8]	TGI [8]	GI50 [9]	TGI [9]	GI50 [10]	TGI [10]
CC[C@H](Nc1ncnc2nc[nH]c12)c1nc2cccc(F)c2c(=O)n1-c1ccccc1	48.4 µM	> 100 µM	4.64 µM	> 100 µM	51.2 µM	> 100 µM	12.5 µM	> 100 µM	16.7 µM	> 100 µM	4.09 µM	22.7 µM	80.8 µM	> 100 µM	4.86 µM	> 60.4 µM	7.4 µM	> 100 µM	45.3 µM	> 100 µM
COc1ccccc1C#Cc1ccccc1C#CCCCCO	20.1 µM	41.6 µM	15.5 µM	33.4 µM	18.7 µM	37.3 µM	34.5 µM	> 100 µM	17.9 µM	40.7 µM	15.3 µM	32.2 µM	19.1 µM	37.7 µM	13.7 µM	31.1 µM	17.5 µM	34.5 µM	14.3 µM	29.5 µM
O=[N+]([O-])c1cc(Cl)c2[nH]c3c(Cl)cc([N+](=O)[O-])cc3c2c1	0.347 µM	2.19 µM	0.326 µM	5.34 µM	0.286 µM	5.43 µM	0.356 µM	19.1 µM	0.468 µM	5.8 µM	0.471 µM	> 100 µM	0.213 µM	28.2 µM	0.0596 µM	0.405 µM	0.296 µM	> 100 µM	0.508 µM	> 100 µM
Cc1[nH]nc(C(F)(F)F)c1N=NN(C)C		35.5 µM		24.9 µM		36.5 µM		22.9 µM		25 µM				21.9 µM		23.5 µM		30.1 µM		24.2 µM
Cn1c(-c2c(N)n(Nc3cccc(Cl)c3)c3nc(C#N)c(C#N)nc23)nc2ccccc21	5.85 µM	18.9 µM	0.0816 µM	1.97 µM	7.92 µM	15.3 µM	12.9 µM	> 50 µM	13.4 µM	43 µM	1.27 µM	12.6 µM	2.88 µM	13.2 µM	16.5 µM	> 50 µM	5.15 µM	12.5 µM	6.46 µM	15.4 µM
COc1cc2ncn(-c3cc(OCc4ccccc4C(F)(F)F)c(C(=O)N(C)C)s3)c2cc1OC	> 20.2 µM	> 25 µM	> 21.9 µM	> 25 µM	> 25 µM	> 25 µM	> 22.6 µM	> 25 µM	> 16 µM	> 25 µM	> 25 µM	> 25 µM	> 25 µM	> 25 µM	6.66 µM	> 23.9 µM	24.6 µM	> 25 µM	> 25 µM	> 25 µM
CCCCCCCCOC(=O)CC[C@@H](C)[C@H]1CC[C@H]2[C@@H]3[C@H](OC(=O)CCN)C[C@@H]4C[C@H](OC(=O)CCN)CC[C@]4(C)[C@H]3C[C@H](OC(=O)CCN)[C@]12C	4.88 µM	18.7 µM	20.4 µM	46.9 µM	1.95 µM	3.61 µM			10.5 µM	27 µM	3.24 µM	9.1 µM	10 µM	29.9 µM	2.29 µM	6.74 µM	6.62 µM	22.2 µM	3.4 µM	9.7 µM
COc1cc2nc(SCc3cc(OC)c(OC)c(OC)c3)n(Cc3ccccc3)c(=O)c2cc1OC	2.92 µM	16.8 µM	3.32 µM	20.7 µM	3.64 µM	19.3 µM	10.8 µM	32.4 µM	3.18 µM	18.6 µM	7.82 µM	> 70.5 µM	6.58 µM	> 100 µM	1.79 µM	8.97 µM	7.65 µM	> 100 µM	5.38 µM	> 100 µM
CCNc1cc(-c2cccc(OC(F)(F)F)c2)nc2ccc(N3CCCC3)cc12	1.81 µM	3.54 µM	2.03 µM	4.07 µM	1.68 µM	3.62 µM	2.58 µM	8.09 µM	1.8 µM	3.86 µM	1.78 µM	4.79 µM	1.84 µM	4.47 µM	1.21 µM	3.24 µM	1.7 µM	3.97 µM	2.2 µM	5.88 µM
CS(=O)(=O)CCNCc1cc(-c2cc3c(Nc4ccc(OCc5cccc(F)c5)c(Cl)c4)ncnc3s2)cs1	12.8 µM	> 25 µM	17.2 µM	> 25 µM	9.34 µM	> 25 µM	3.16 µM	> 25 µM	1.04 µM	> 19.6 µM	5.61 µM	> 25 µM	20.5 µM	> 25 µM	4.34 µM	> 25 µM	15.3 µM	> 25 µM	13.3 µM	> 25 µM
Nc1nonc1-c1nc2cnccc2n1C1CC1	5.35 µM	> 21.7 µM	3.85 µM	19.2 µM	9.09 µM	> 25 µM	0.636 µM	> 20.3 µM	4.36 µM	18.4 µM	8.76 µM	> 25 µM	7.3 µM	> 25 µM	0.502 µM	> 25 µM	7.03 µM	> 25 µM	10.6 µM	> 25 µM
COc1ccc(NC(=O)CSC2=C(Nc3cccc(Br)c3)C(=O)N(Cc3ccccc3)C2=O)cc1Cl	> 100 µM	> 100 µM	51.6 µM	> 100 µM	35.5 µM	> 100 µM	44.4 µM	> 100 µM	> 100 µM	> 100 µM	30.7 µM	> 100 µM			24.5 µM	> 100 µM	> 100 µM	> 100 µM	> 100 µM	> 100 µM
O=C1CC2C(=O)c3ccccc3CC2c2ccccc21 (centres undefined)		> 100 µM		> 100 µM		> 100 µM		> 100 µM		> 100 µM		> 100 µM				> 100 µM		> 100 µM		> 100 µM
